Measured values from patent US20090118285A1, “USE OF KCNQ-OPENERS FOR TREATING OR REDUCING THE SYMPTOMS OF SCHIZOPHRENIA” (H. Lundbeck A/S, priority 2006, published 2009).

Legend:
[1] = system: sensitised behavioural response to amphetamine in mice; assay: Amphetamine sensitisation: sensitised behavioural response to amphetamine in mice; format: in vivo, mouse; conditions: amphetamine-pretreated mice, compound s.c. 30 min before D-amphetamine challenge 1.25 mg/kg s.c., 30 min test; for ED50: Mus musculus, read-out: Inhibition of amphetamine sensitised response. ED50 (±S.D.)
Procedure: Inhibition of the behavioral response to an acute amphetamine challenge in sensitised animals is proposed as a model for evaluating the antipsychotic or antimanic potential of compounds.
Subjects. Male NMRI mice (Charles River) weighing approx. 35 g are used. The animals were housed 6 mice pr cage in a 12-hr light/dark cycle under controlled conditions for regular in-door temperature (21±2° C.) and humidity (55±5%) with food and tap water available ad libitum. 12 mice are used pr experimental group.
Administration of compounds.

[2] = Inhibition of baseline motility in vehicle-pretreated, vehicle-challenged mice; conditions: NMRI, mouse, in vivo
[3] = system: DA levels in the nucleus accumbens; assay: Microdialysis: DA levels in the nucleus accumbens of freely moving rats; format: in vivo, rat; conditions: 5 mg/kg s.c., freely moving rats
Source text: It is well-known that psychostimulants increase locomotor activity via an increase in extracellular DA levels in the nucleus accumbens, which is the terminal area of the mesolimbic DA projections (Guix et al., 1992, Neurosci. Lett., 138(1), 137-140; Moghaddam et al., 1989, Synapse, 4(2), 156-161). It is also known, that the antagonistic effect of antipsychotics on stimulant-induced hyperlocomotion is related to the effect of antipsychotics to inhibit the stimulated DA levels in the nucleus accumbens (Broderick et al., 2004, Prog. Neuropsychopharmacology and Biol. Psych., 28, 157-171). Thus, the nucleus accumbens is an accepted neuroanatomical site for testing reversal of positive symptoms of psychosis. […] The experiments were conducted such that the data may be associated with the behavioural data obtained above.
Subjects. Male Sprague-Dawley rats (Charles River), initially weighing 275-300 g, were used. The animals were housed under a 12-hr light/dark cycle under controlled conditions for regular in-door temperature (21±2° C.) and humidity (55±5%) with food and tap water available ad libitum.
Surgery. Animals were anaesthetized with hypnorm/dormicum (2 ml/kg s.c.) and intracerebral guide cannulas (CMA/12) were stereotaxically implanted, positioning the dialysis probe tip in the nucleus accumbens (co-ordinates: […] anterior to bregma, —1.2 mm lateral to bregma, 8.0 mm ventral to the dura). Anchor screws and acrylic cement was applied for fixation of the guide cannula. The body temperature of the animals was maintained at 37° C. by means of a rectal probe and a heating plate. The rats were allowed to recover from surgery for 2 days, housed singly in cages.
Experimental procedure. On the day of the experiment, a microdialysis probe (CMA/12, 0.5 mm diameter, 2 mm length) was inserted through the guide cannula of the conscious animal. The probes were connected to a microinjection pump via a dual channel swivel which allowed the animals unrestricted movements. Perfusion of the microdialysis probe with filtered Ringer solution (145 mM NaCl, 3 mM KCl, 1 mM MgCl2, 1.2 mM CaCl2) was maintained for the duration of the experiment at a constant flow rate of 1 μL/min. After 180 min of stabilisation, the experiments were initiated. Dialysates were collected every 20 min. After the experiments the rats were sacrificed by decapitation, their brains removed, frozen and sliced for probe placement verification.
Administration of compounds. […] Thirty min after the first administration dex-amphetamine sulphate (0.5 mg/kg s.c.) was administered.
Analysis of dialysate. The concentration of dopamine (DA) in the dialysates was assessed by means of HPLC with electrochemical detection. The dialysate constitutents were separated by reverse phase liquid chromatography (ODS 150×3 mm, […]). Mobile phase consisted of 90 mM NaH2PO4, 50 mM sodium citrate, 367 mg/l sodium 1-octanesulfonic acid, 50 μM EDTA and 8% acetonitrile (pH 4.0) at a flow rate of 0.5 ml/min. Electrochemical detection of DA was accomplished using a coulometric detector; potential set at E1=−75 mV and E2=300 mV (guard cell at 350 mV) (Coulochem II, ESA). The dialysate levels of DA in the three dialyse samples preceding the administration of compound were averaged and used as baseline level of DA (100%)

[4] = Motility inhibition (sedative properties) without d-amphetamine, rat; conditions: Wistar, in vivo, sc
[5] = system: amphetamine-induced hyperactivity in the rat; assay: Amphetamine challenge: d-amphetamine induced hyperactivity in rats; format: in vivo; conditions: test substance s.c. 30 min before d-amphetamine sulphate 0.5 mg/kg, motility 2 hours, read-out: Amphetamine antagonism ED50 ± std. dev.
Source text: D-amphetamine administration to rodents stimulates an increase in locomotor activity via mesolimbic dopamine receptors in the nucleus accumbens. While psychostimulant psychosis may not model all forms of schizophrenia, it may have applicability to paranoid schizophrenia and non-schizophrenic psychotic disorders (Krystal et al. pp. 214-224 in Neurobiology of Mental Illness ISBN 0-19-511265-2). It is believed that inhibition of the amphetamine-induced increase in locomotor activity is a reliable method for the evaluation of compounds with an antipsychotic potential (Ögren et al., European J. Pharmacol. 1984, 102, 459-464). In the following experiment, it was tested if the inhibition of spontaneous DA neurons in the mesolimbic circuit that was assessed above, could be translated into behavioral antipsychotic endpoint.
Subjects. Male Wistar rats (Taconic, Denmark) weighing 170-240 g are used. The animals were housed under a 12-hr light/dark cycle under controlled conditions for regular in-door temperature (21±2° C.) and humidity (55±5%) with food and tap water available ad libitum. Eight rats were used at each dose level and in the parallel control group receiving the vehicle to the test compound plus d-amphetamine and the group receiving vehicle injections only.

[6] = system: conditioned avoidance response in rats; assay: Conditioned avoidance response in rats; format: in vivo, rat; conditions: for % inhibition of avoidance. Relative to baseline.: rats; for Escape failures (effect on motor performance): rat, in vivo
Source text: In the conditioned avoidance response (CAR) model, rats are trained to respond to a stimulus within a fixed time by moving from one place to another in order to avoid a footshock. Antipsychotics selectively suppress the avoidance response within a certain dose-range without suppressing escape behavior elicited by the appearance of the footshock. The CAR model is considered to be a predictive and reliable animal model that is sensitive to compounds with an antipsychotic potential.
Subjects. Male Wistar rats (Taconic, Denmark) weighing 150 g at the beginning of the study are used. The rats are housed ii pairs and maintained on a 12 h light/dark cycle (lights on 06:00). The animals are fed once daily (approx. 6 pellets/rat) in order to keep the rats at 80% of their free-feeding weight. Water is available ad libitum. Temperature (21±1° C.) and relative humidity (55±5%) are automatically controlled.
Experimental procedure. Conditioned avoidance testing is conducted using four automated shuttle-boxes (ENV-010M, MED-Associates) each placed in a sound-attenuated chamber. Each box is divided into two compartments by a partition with an opening. The position of the animal and crossings from one compartment to the other are detected by two photocells placed on either side of the dividing wall. Upon presentation of the conditioned stimuli (CS), tone and light, the animals have 10 s to cross to the other compartment of the shuttle-box in order to turn the CS off (end the trial) and avoid the appearance of the unconditioned stimulus (UCS). If the rat remains in the same compartment for more than 10 s, the UCS is presented as 0.5 mA scrambled foot-shocks until escape is performed or 10 s in maximal duration. The following behavioural variables are evaluated: avoidance (response to CS within 10 s); escape (response to CS+UCS); escape failures (failure to respond); intertrial crosses and locomotor activity. The rats are habituated to the shuttle-box 3 min before each test session. During training each test session consists of 30 trials with intertrial intervals varying randomly between 20 s and 30 s. Training is carried until the rats display an avoidance of 80% or more, on 3 consecutive days. A test is preceded by a pre-test the day before giving rise to a baseline value for each animal, thus the animals serve as their own control. Seven to eight rats are used at each dose level. A parallel control group receiving the vehicle of the test compound is also included.
Administration of compound.
Statistical analyses. The effects of compounds on avoidance and escape failure behaviours were statistically evaluated by means of a two-way repeated measures ANOVA followed by post hoc comparisons (Student-Newman-Keuls Method) when appropriate. P-levels <0.05 were considered statistically significant.

[7] = system: DA levels in the nucleus accumbens; assay: Microdialysis: DA levels in the nucleus accumbens of freely moving rats; format: in vivo, rat; conditions: no amphetamine provocation, data not shown
[8] = system: immobility in the mouse forced swim test; assay: Mouse forced swim test; format: in vivo; conditions: 30 min before the test, mice, last 3 min of 6 min swim, vehicle = 100
[9] = system: baseline motility in mice; assay: Inhibition of baseline motility in vehicle-pretreated, vehicle-challenged mice; conditions: vehicle-pretreated, vehicle-challenged mice, compound s.c.
in vivo = conditions: Wistar, rat, sc
[10] = 2.5 mg/kg s.c. 30 min before the test
[11] = 5 mg/kg s.c. 30 min before the test

With `Cc1cc(N2CCOCC2)cc(C)c1NC(=O)CC(C)(C)C` the ED50 [1] was 1.6 mg/kg, the ED50 at 30 min ([2]; subcutaneous) was over 2.5 mg/kg and the “DA level in the nucleus accumbens, amphetamine + compound” value (shortened to “DA level … amphetamine + compound”) ([3]; time 0 min) was 91 ± 4 % of baseline. The “DA level … amphetamine + compound” value ([3]; time −20 min) was 100 ± 3 % of baseline, the ED50 at 2 h [4] was 7.6 mg/kg and the ED50 [5] was 2.1 mg/kg. For the same compound, the “% inhibition of avoidance. Relative to baseline.” value [6, 10] was 1%, the “% inhibition of avoidance. Relative to baseline.” value [6, 11] was 71% and the “Escape failures (effect on motor performance)” value [6] was “None of the tested doses caused any incidences of escape failures”. For the same compound, the “Effect on basal extracellular DA level in the nucleus accumbens” value [7] was “merely provoked levels of DA were affected, but not basal levels of DA”.

For `Cc1cc2c(s1)Nc1ccccc1N=C2N1CCN(C)CC1` [Olanzapine], the ED50 [5] was 0.21 mg/kg, the Immobility in % ([8]; dose 0.31 mg/kg) was 96% and the Immobility in % ([8]; dose 1.3 mg/kg) was 95%.

In the case of `CCCCCC(=O)Nc1c(F)cc(N2CCOCC2)cc1F` [Hexanoic acid (2,6-difluoro-4-morpholin-4-yl-phenyl)-amide], the ED50 [1] is reported as 2.4 mg/kg and the ED50 at 30 min ([2]; subcutaneous) is reported as over 5 mg/kg.

For `Cc1cc(N2CCOCC2)cc(C)c1NC(=O)CC1CCCC1`, the ED50 [1] was 1.2 mg/kg, the ED50 at 30 min ([2]; subcutaneous) was 2.2 mg/kg and the “DA level … amphetamine + compound” value ([3]; time 0 min) was 99 ± 4 % of baseline. For the same compound, the “DA level … amphetamine + compound” value ([3]; time −40 min) was 95 ± 6 % of baseline, the ED50 at 2 h [4] was 5.3 mg/kg and the ED50 [5] was 2.6 mg/kg. The “% inhibition of avoidance. Relative to baseline.” value [6, 10] was 5%, the “% inhibition of avoidance. Relative to baseline.” value [6, 11] was 65% and the “Escape failures (effect on motor performance)” value [6] was “None of the tested doses caused any incidences of escape failures”. For the same compound, the “Effect on basal extracellular DA level in the nucleus accumbens” value [7] was “merely provoked levels of DA were affected, but not basal levels of DA”.

Compound `COc1cc(N2CCOCC2)cc(C)c1NC(=O)CC1CCCC1` [2-Cyclopentyl-N-(2-methoxy-6-methyl-4-morpholin-4-yl-phenyl)-acetamide] has an ED50 [1] of 1.7 mg/kg and an ED50 at 30 min ([2]; subcutaneous) of 3 mg/kg.

`Cc1nc(N2CCOCC2)nc(C)c1NC(=O)CC1CCCC1` [2-Cyclopentyl-N-(4,6-dimethyl-2-morpholin-4-yl-pyrimidin-5-yl)-acetamide] gave an ED50 [1] of 0.9 mg/kg and an ED50 at 30 min ([2]; subcutaneous) of 2.5 mg/kg.

With `Cc1cc(N2CCOCC2)nc(C)c1NC(=O)CC(C)(C)C` [N-(2,4-Dimethyl-6-morpholin-4-yl-pyridin-3-yl)-3,3-dimethyl-butyramide] the ED50 [1] was 1.4 mg/kg and the ED50 at 30 min ([2]; subcutaneous) was 3.1 mg/kg.

`CCC(=O)Nc1c(Br)cc(N2CCOCC2)cc1C(F)(F)F` [N-(2-Bromo-4-morpholin-4-yl-6-trifluoromethyl-phenyl)-propionamide] showed an ED50 [1] of 3.1 mg/kg and an ED50 at 30 min ([2]; subcutaneous) of 6 mg/kg.

With `Cc1nc(N2CCOCC2)nc(C)c1NC(=O)Cc1ccc(F)cc1` [N-(4,6-Dimethyl-2-morpholin-4-yl-pyrimidin-5-yl)-2-(4-fluoro-henyl)-acetamide] the “Inhibition of amphetamine sensitised response. ED50 (±S.D.)” value [1] was 0.4 mg/kg and the “Inhibition of baseline motility. ED50 (±S.D.)” value [9] was 2.2 mg/kg.

Compound `[Li]` [Lithium-chloride] has an ED50 [5] of 12 mg/kg and an ED50 at 2 h (in vivo) of over 40 mg/kg.

Work on `CCOC(=O)Nc1ccc(NCc2c(C)cc(C)cc2C)cc1N` [[2-Amino-4-(2,4,6-trimethyl-benzylamino)-phenyl]-carbamic acid ethyl ester] yielded an ED50 at 30 min [2] of 4.3 mg/kg.
